Laboratory results taken from publication PMC8961551, “Potential Anticancer Agents against Melanoma Cells Based on an As-Synthesized Thiosemicarbazide Derivative” (Biomolecules, 2022).

How the values were obtained:
[1] = tested on: superoxide dismutase (SOD2); test: qRT-PCR relative mRNA expression, SOD2; type: cell-based, human; conditions: G-361, 48 h incubation, RQ = 2^-ΔΔCt, mean ± SD, control 1.001
Protocol: […] cell line was seeded into 6-well plates in the concentration of 4 × 10^5 cells/well. Thiosemicarbazide derivatives were added when 70–80% of confluence was achieved. After 48 h of incubation, 1 mL of TRIzol™ Reagent (Invitrogen, Carlsbad, CA, USA) was added to lyse the cells. Lysates were centrifuged for 5 min at 12,000× g at 4 °C, and clear supernatants were processed according to the manufacturer’s protocol. Then, reverse transcription was performed using NG dART RT-PCR kit (EURx, Gdańsk, Poland) and a Mastercycler gradient thermocycler (Eppendorf, Hamburg, Germany). Thermal profile of the reaction: 10 min at 25 °C, then 50 min at 50 °C, and 5 min at 85 °C. mRNA levels of the genes DHODH, 18SRNA, and BACT were assessed using TaqMan Fast Advanced Master Mix (ThermoFisher, Waltham, MA, USA). mRNA levels of the following genes: CAT, SOD2,18SRNA TBP were assessed using PowerUp SYBR Green Master Mix (ThermoFisher, Waltham, MA, USA) in a 7500 Fast Real-Time PCR System (ThermoFisher, Waltham, MA, USA). Thermal profile of the reactions performed: 20 s at 95 °C, followed by 40 cycles of 3 s at 95 °C and 30 s at 60 °C. The reaction was carried out in triplicates. Relative expression of the tested genes was determined by qRT-PCR and the ΔΔCt method. The statistical analysis was performed with RQ values (relative quantification, RQ = 2^−∆ΔCt).

[2] = tested on: melanoma line G-361; test: Intracellular thiol / reduced glutathione (GSH) content, VB-48 vitality assay; type: cell-based, human; conditions: G-361, 24 h, compound at IC50 concentration, representative histogram; quadrant not defined in legend
Protocol: Analyses of the levels of cellular thiols were performed using NC 3000 system (Chemometec., Lillerød, Denmark) according to the manufacturer’s protocol for the cell vitality assay. The G-361 cells were seeded in 12-well culture plates at a density of 1 × 10^5 cell/mL and the tested compounds in concentrations corresponding to IC50 value were added when 70–80% of confluence was achieved. The cells were counted, and suspended in 1 mL of culture medium. A representative sample of 190 uL was pipetted into the new Eppendorf tubes and 10 µL of Solution 5 (which contains acridine orange (AO) that stains all nucleated cells; PI which stains dead cells only; and VitaBright-48 TM ([…]) which stains viable cells in an intensity-dependent manner reliant on the level of thiols) was added to the cell suspension. Next, the stained cells were loaded into 8-chamber NC-Slides A8™ (Chemometec., Lillerød, Denmark) and measured using the Vitality (VB-48) Assay protocol in the NC-3000 image cytometer. The experiment was performed three times with three replicates.

[3] = tested on: melanoma line G-361; test: Annexin V / propidium iodide apoptosis assay (image cytometry); type: cell-based, human; conditions: G-361, 24 h, compound at IC50 concentration, representative histogram
Protocol: Cell apoptosis assays were performed using an NC 3000 system (Chemometec., Lillerød, Denmark) according to the manufacturer’s protocol for the Annexin V Assay. The G-361 cells were seeded in 6-well plates at a density of 2 × 10^5 cells/mL and the tested compounds with concentration IC50 were added when 70–80% of confluence was achieved. After 24 h incubation, cells were suspended in 100 μL of Annexin V binding buffer with 2 µL of Annexin V-CF488A conjugate (FITC-labeled annexin V) and 2 µL of Solution 15 (Hoechst33342 stains). In the next step, the cells were incubated for 15 min at 37 °C and subsequently centrifuged at 400× g for 5 min. Following the removal of the supernatant, the cell pellets were resuspended in 300 µL of Annexin V binding buffer and centrifuged twice under the conditions described above. Eventually, the cell pellets were resuspended in 100 µL of Annexin V binding buffer and 2 µL of Solution 16 (propidium iodide, which stains late apoptotic and necrotic cells) was added. The prepared samples were analyzed immediately using 2-chamber NC-Slides A2™ (Chemometec., Lillerød, Denmark) and the Annexin V Assay protocol. The obtained scatterplots were used to demarcate the percentage of healthy cells and early and late apoptotic cells. The experiment was performed three times with three replicates.

[4] = tested on: melanoma line G-361; test: Two-step cell cycle analysis (DAPI, image cytometry); type: cell-based, human; conditions: G-361, 24 h, IC50 concentration
Protocol: Cell-cycle assays was performed using NC 3000 system (Chemometec., Lillerød, Denmark) according to manufacturer’s protocol for the two-step cell cycle analysis. The G-361 cells were seeded in 12-well plates at a density of 1 × 10^5 cells/well, and the tested compounds with concentration IC50 were added when 70–80% of confluence was achieved. After 24 h of incubation with tested compounds, the cells were washed with PBS and thoroughly resuspended in 250 μL lysis buffer supplemented with 10 μg/mL DAPI. After 5 min incubation at 37 °C, cells were mixed with 250 μL stabilization buffer and loaded into the 8-chamber slide NC-Slide A8 (Chemometec., Lillerød, Denmark). Cellular fluorescence was quantified using a NucleoCounter® NC-3000™ image cytometer (Chemometec., Lillerød, Denmark). The obtained DNA content histograms were used to demarcate different phases of the cell cycle in tested samples. The experiments were performed three times with three replicates.

[5] = tested on: gastric cancer cell line MKN74; set-up: method as in PMID 22741788; conditions: MKN74 gastric cancer cells ref 9; cited from earlier work

SMILES | Relative mRNA expression level SOD2 (RQ) [1] | GSH content analysis, quadrant Q1ll [2] [%] | GSH content analysis, quadrant Q1lr [2] [%] | GSH content analysis, quadrant Q1ul [2] [%] | GSH content analysis, quadrant Q1ur [2] [%] | Q1ll, normal cells [3] [%] | Q1lr, early apoptotic cells [3] [%] | Q1ul, necrotic cells [3] [%] | Q1ur, late apoptotic cells [3] [%] | effect on cell cycle [4] | effect on cell cycle [5]
CSc1ccc(NC(=S)NNC(=O)COc2ccc(Cl)cc2Cl)cc1 [PK2, 1-(2,4-dichlorophenoxy)acetyl-4-(4-metylothiophenyl)thiosemicarbazide] | 1.486 ± 0.056 | 3 | 44 | 30 | 23 | 52 | 7 | 2 | 39 | – | –
O=C(COc1ccc(Cl)cc1Cl)NNC(=S)Nc1ccccc1I [PK6, 1-(2,4-dichlorophenoxy)acetyl-4-(2-iodophenyl)thiosemicarbazide] | 1.249 ± 0.080 | 4 | 46 | 28 | 22 | 30 | 17 | 4 | 49 | – | –
O=C(COc1ccc(Cl)cc1Cl)NNC(=S)Nc1cccc2ccccc12 [PK9, 1-(2,4-dichlorophenoxy)acetyl-4-(1-naphtyl)thiosemicarbazide] | 1.293 ± 0.100 | 3 | 41 | 26 | 30 | 32 | 28 | 1 | 39 | no cell cycle arrest was observed | inhibited the cell cycle in S and G2 phases
